# Measured values: US5459063A, “Plasmodium falciparum ribonucleotide reductase DNA” (priority 1993, dated 1995)
# Like-named read-outs stand apart in the source and are kept apart here. Square brackets hold non-standard residues; d marks the D form. Ends that are not written are not given here. Peptide text beside a SMILES is read from it. Phe(4-N3) = [N-]=[N+]=Nc1ccc(C[C@H](N)C(=O)O)cc1; Phe(4-NH2) = Nc1ccc(C[C@H](N)C(=O)O)cc1
# How the values were obtained:
# [1] = target: T1, calf thymus/mouse ribonucleotide reductase (mammalian RR) (Bos taurus, UniProt Q32LP1); experiment: biochemical; conditions: for Percent RI (percent relative inhibitory potency): 100 × (IC50 Ac(FTLDADF)/IC50 peptide analog)
# T1 sequence (Q32LP1 1-791): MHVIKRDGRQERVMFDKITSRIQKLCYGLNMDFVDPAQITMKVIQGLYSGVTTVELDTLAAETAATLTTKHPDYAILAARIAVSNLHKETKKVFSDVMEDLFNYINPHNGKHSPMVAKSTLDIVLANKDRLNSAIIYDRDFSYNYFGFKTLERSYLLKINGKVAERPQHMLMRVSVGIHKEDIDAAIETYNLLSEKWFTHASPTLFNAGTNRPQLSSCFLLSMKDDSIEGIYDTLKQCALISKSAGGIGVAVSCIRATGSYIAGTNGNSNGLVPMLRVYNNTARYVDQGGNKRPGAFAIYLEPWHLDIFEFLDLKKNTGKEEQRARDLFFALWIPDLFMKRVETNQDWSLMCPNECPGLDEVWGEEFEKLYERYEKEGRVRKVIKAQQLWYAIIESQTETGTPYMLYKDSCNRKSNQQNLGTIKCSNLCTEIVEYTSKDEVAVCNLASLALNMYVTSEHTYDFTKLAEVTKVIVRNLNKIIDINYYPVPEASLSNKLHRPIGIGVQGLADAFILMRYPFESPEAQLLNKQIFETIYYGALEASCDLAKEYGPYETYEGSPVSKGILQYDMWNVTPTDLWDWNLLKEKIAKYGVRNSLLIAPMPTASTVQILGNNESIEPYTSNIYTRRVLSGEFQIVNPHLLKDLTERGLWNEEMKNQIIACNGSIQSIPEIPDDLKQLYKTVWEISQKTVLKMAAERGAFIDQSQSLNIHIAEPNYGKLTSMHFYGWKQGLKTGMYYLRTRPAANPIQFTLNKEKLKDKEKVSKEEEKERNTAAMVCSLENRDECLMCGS
# Excerpt: From two to four assays were run
Molecule,IC50 [1],"Percent RI (percent relative inhibitory potency) ([1]; Table 4, mammalian RR)","Percent RI (percent relative inhibitory potency), mammalian RR activity (calf thymus R1 (calf))",also measured
"CC(=O)N[C@@H](Cc1ccc(N)cc1)C(=O)N[C@H](C(=O)N[C@@H](CC(C)C)C(=O)N[C@@H](CC(=O)O)C(=O)N[C@@H](C)C(=O)N[C@@H](CC(=O)O)C(=O)N[C@@H](Cc1ccccc1)C(=O)O)[C@@H](C)O [Peptide 9, Ac- (F(4'-NH2)TLDADF)] (Ac-[Phe(4-NH2)]TLDADF-OH)",100 µM,10%,–,–
"CC(=O)N[C@@H](Cc1ccc(N=[N+]=[N-])cc1)C(=O)N[C@H](C(=O)N[C@@H](CC(C)C)C(=O)N[C@@H](CC(=O)O)C(=O)N[C@@H](C)C(=O)N[C@@H](CC(=O)O)C(=O)N[C@@H](Cc1ccccc1)C(=O)O)[C@@H](C)O [Peptide 10, Ac- (F(4'-N3)TLDADF)] (Ac-[Phe(4-N3)]TLDADF-OH)",100 µM,10%,–,–
Ac- (FTFTADF) [Peptide 14],–,18 ± 4.2%,–,"IC50 ([1]; read-out: IC50, concentration of peptide producing 50% inhibition of activity, Table 4, mammalian RR, Dixon plots of 4-6 concentration points, ranges are two independent determinations on different days): 48 to 58 µM"
Ac-(FTFTADF) (peptide),–,–,18%,–
Ac-(FTLDALF) (peptide),–,–,35%,–
"Ac-FALDADF [Peptide 12, Ac- (FALDADF)]",35 to 40 µM,24 ± 4.1%,–,–
"Ac-FCLNTEF [Ac-(SEQ ID NO:7), Ac- (FCLNTEF)]",–,–,–,"IC50 ([1]; IC50 on mammalian RR activity, Example 54 text, peptide bound to purified calf thymus R1 before adding recombinant mouse R2): 160 µM; times less potent an inhibitor on mammalian RR activity than Ac-(SEQ ID NO:6) ([1]; relative to Ac-(SEQ ID NO:6)): 8-16 times"
"Ac-FLDADF [Peptide 25, Ac- (FLDADF)]",412 µM,2.5%,–,–
"Ac-FSLDADF [Peptide 11, Ac- (FSLDADF)]",40 to 42 µM,25 ± 1.1%,–,–
"Ac-FTADADF [Peptide 15, Ac- (FTADADF)]",207 µM,4.9 ± 0.60%,–,–
"Ac-FTFNEDF [Peptide 30, Ac- (FTFNEDF)]",100 µM,–,–,–
"Ac-FTLAADF [Peptide 17, Ac- (FTLAADF)]",286 to 336 µM,2.9 ± 0.4%,–,–
"Ac-FTLDAAF [Peptide 23, Ac- (FTLDAAF)]",34 to 35 µM,28 ± 1.3%,–,–
Ac-FTLDADFAA [Peptide 28],500 µM,2.1%,–,–
"Ac-FTLDADL [Peptide 24, Ac- (FTLDADL)]",> 400 µM,< 3%,–,–
"Ac-FTLDAEF [Peptide 20, Ac- (FTLDAEF)]",450 to 620 µM,1.7 ± 0.15%,–,–
"Ac-FTLDALF [Peptide 22, Ac- (FTLDALF)]",29 to 30 µM,35 ± 5.0%,–,–
"Ac-FTLDANF [Peptide 21, Ac- (FTLDANF)]",32 to 38 µM,23 ± 1.0%,–,–
"Ac-FTLDDF [Peptide 26, Ac- (FTLDDF)]",322 µM,3%,–,–
"Ac-FTLDF [Peptide 27, Ac- (FTLDF)]",364 to 460 µM,2.5 ± 0.18%,–,–
"Ac-FTLDGDF [Peptide 18, Ac- (FTLDGDF)]",110 to 230 µM,9 ± 0.6%,–,–
"Ac-FTLDLDF [Peptide 19, Ac- (FTLDLDF)]",28 µM,35%,–,–
"Ac-FTLNADF [Peptide 16, Ac- (FTLNADF)]",25 to 29 µM,40 ± 2.4%,–,–
"Ac-FTVDADF [Peptide 13, Ac- (FTVDADF)]",30 µM,35%,–,–

Molecule,IC50 [1],"Percent RI (percent relative inhibitory potency) ([1]; Table 4, mammalian RR)","Percent RI (percent relative inhibitory potency), mammalian RR activity (calf thymus R1 (calf))",also measured
"Ac-LDADF [Peptide 7, Ac- (LDADF)]",> 400 µM,< 3%,–,–
"Ac-LTLDADF [Peptide 8, Ac- (LTLDADF)]",> 400 µM,< 3%,–,–
Ac-NSFTLDADF [Peptide 1],9 to 15 µM,100%,–,–
Ac-SFTLDADF [Peptide 2],8 to 20 µM,100%,–,–
"Ac-TLDADF [Peptide 6, Ac- (TLDADF)]",> 400 µM,< 3%,–,–
"FTLDADF [Peptide 5, FTLDADF]",> 400 µM,< 3%,–,–
SFTLDADF (peptide),–,–,25%,"IC50, inhibition of mammalian RR activity (calf thymus R1 (calf)): 80 µM"
SFTLDADF [Peptide 3],80 µM,25%,–,–
Ac-FTLAADF [Ac-(FTLAADF)],–,–,2.9%,–
Ac-LDADF [Ac-(LDADF)],–,–,< 3%,"IC50, inhibition of mammalian RR activity (calf thymus R1 (calf)): > 400 µM"
Ac-TLDADF [Ac-(TLDADF)],–,–,< 3%,"IC50, inhibition of mammalian RR activity (calf thymus R1 (calf)): > 400 µM"
Ac-FTLDAEF [Ac-(FTLDAEF)],–,–,1.7%,–
Ac-FTLDLDF [Ac-(FTLDLDF)],–,–,35%,"IC50, inhibition of mammalian RR activity (calf thymus R1 (calf)): 28 µM"
Ac-LTLDADF [Ac-(LTLDADF)],–,–,< 3%,"IC50, inhibition of mammalian RR activity (calf thymus R1 (calf)): > 400 µM"
FTLDADF,–,–,< 3%,"IC50, inhibition of mammalian RR activity (calf thymus R1 (calf)): > 400 µM"
Ac-SFTLDADF [Ac-(SFTLDADF)],–,–,100%,–
Ac-[Phe(4-NH2)]TLDADF [Ac-(F(4'-NH2)TLDADF)],–,–,10%,"IC50, inhibition of mammalian RR activity (calf thymus R1 (calf)): 100 µM"
Ac-FTLNADF [Ac-(FTLNADF)],–,–,40%,–
Ac-FTLDGDF [Ac-(FTLDGDF)],–,–,9%,–
Ac-[Phe(4-N3)]TLDADF [Ac-(F(4'-N3)TLDADF)],–,–,10%,"IC50, inhibition of mammalian RR activity (calf thymus R1 (calf)): 100 µM"
Ac-FSLDADF [Ac-(FSLDADF)],–,–,25%,–
Ac-FALDADF [Ac-(FALDADF)],–,–,24%,–
Ac-FTADADF [Ac-(FTADADF)],–,–,4.9%,"IC50, inhibition of mammalian RR activity (calf thymus R1 (calf)): 207 µM"
Ac-FTVDADF [Ac-(FTVDADF)],–,–,35%,"IC50, inhibition of mammalian RR activity (calf thymus R1 (calf)): 30 µM"
